Results from BindingDB's records for doi:10.1021/acs.jmedchem.0c00807 (University of Oxford, 2020).

Assay: Modulation of human utrophinA expressed in mouse H2K cells assessed as upregulation of utrophin production after 24 hrs by luciferase reporter gene assay

SMILES | EC50 [nM]
CC(=O)Nc1ccc2oc(-c3ccc4ccccc4c3)nc2c1 | 10
CC(C)C(=O)Nc1ccc2oc(-c3ccc4ccccc4c3)nc2c1 | 38
O=S1(=O)CCCN1c1ccc2oc(-c3ccc4ccccc4c3)nc2c1 | 110
CNS(=O)(=O)c1ccc2oc(-c3ccc4ccccc4c3)nc2c1 | 146
CCP(=O)(OC)c1ccc2oc(-c3ccc4ccccc4c3)nc2c1 (stereo not given) | 4
CCP(=O)(OC)c1ccc2nc(-c3ccc4ccccc4c3)oc2c1 (stereo not given) | 71
CCOP(=O)(CC)c1ccc2oc(-c3ccc4ccccc4c3)nc2c1 (stereo not given) | 26
CCOP(=O)(CC)c1ccc2nc(-c3ccc4ccccc4c3)oc2c1 (stereo not given) | 108
COP(=O)(c1ccc2oc(-c3ccc4ccccc4c3)nc2c1)C(C)C (stereo not given) | 34
COP(=O)(c1ccc2nc(-c3ccc4ccccc4c3)oc2c1)C(C)C (stereo not given) | 234
COP(=O)(c1ccc2oc(-c3ccc4ccccc4c3)nc2c1)C(C)(C)C (stereo not given) | 148
CCP(=O)(OC)c1ccc2oc(-c3cnc4ccccc4c3)nc2c1 (stereo not given) | 62
CCP(=O)(OC)c1ccc2oc(-c3ccc4ncccc4c3)nc2c1 (stereo not given) | 164
CCP(=O)(OC)c1ccc2oc(-c3ccc4cccnc4c3)nc2c1 (stereo not given) | 157
CCP(=O)(OC)c1ccc2oc(-c3ccc4ccncc4c3)nc2c1 (stereo not given) | 332
CCP(=O)(OC)c1ccc2oc(-c3ccc4cnccc4c3)nc2c1 (stereo not given) | 1140
CCP(=O)(OC)c1ccc2nc(-c3cnc4ccccc4c3)oc2c1 (stereo not given) | 71
CCP(=O)(OC)c1ccc2nc(-c3ccc4ncccc4c3)oc2c1 (stereo not given) | 85
CCP(=O)(OC)c1ccc2nc(-c3ccc4cccnc4c3)oc2c1 (stereo not given) | 928
CCP(=O)(OC)c1ccc2nc(-c3ccc4ccncc4c3)oc2c1 (stereo not given) | 1140
CCP(=O)(OC)c1ccc2nc(-c3ccc4cnccc4c3)oc2c1 (stereo not given) | 1760
CCP(=O)(OC)c1ccc2oc(/C=C/c3ccccc3)nc2c1 (stereo not given) | 163
CCP(=O)(OC)c1ccc2oc(-c3ccc(Cl)cc3)nc2c1 (stereo not given) | 112

SMILES | EC50 [nM]
CCP(=O)(OC)c1ccc2oc(-c3cccc(F)c3)nc2c1 (stereo not given) | 823
CCP(=O)(OC)c1ccc2oc(-c3ccc(C(F)(F)F)cc3)nc2c1 (stereo not given) | 548
CCP(=O)(OC)c1ccc2oc(-c3ccccc3C(F)(F)F)nc2c1 (stereo not given) | 861
CCP(=O)(OC)c1ccc2oc(-c3ccc(F)cc3F)nc2c1 (stereo not given) | 777
CCP(=O)(OC)c1ccc2oc(-c3cccc(Cl)c3F)nc2c1 (stereo not given) | 198
CCP(=O)(OC)c1ccc2oc(-c3ccc(Cl)c(Cl)c3)nc2c1 (stereo not given) | 118
CCP(=O)(OC)c1ccc2oc(-c3cccc(Cl)c3Cl)nc2c1 (stereo not given) | 244
CCP(=O)(OC)c1ccc2oc(-c3c(F)ccc(Cl)c3F)nc2c1 (stereo not given) | 1770
CCP(=O)(OC)c1ccc2oc(-c3ccc(Cl)s3)nc2c1 (stereo not given) | 168
CCP(=O)(OC)c1ccc2oc(-c3sccc3Cl)nc2c1 (stereo not given) | 1510
CCP(=O)(OC)c1ccc2oc(-c3ccc(C(F)(F)F)o3)nc2c1 (stereo not given) | 1770
CCP(=O)(OC)c1ccc2nc(/C=C/c3ccccc3)oc2c1 (stereo not given) | 766
CCP(=O)(OC)c1ccc2nc(-c3ccc(F)cc3)oc2c1 (stereo not given) | 1230
CCP(=O)(OC)c1ccc2nc(-c3cccc(F)c3)oc2c1 (stereo not given) | 2250
CCP(=O)(OC)c1ccc2nc(-c3ccc(F)cc3F)oc2c1 (stereo not given) | 1760
CCP(=O)(OC)c1ccc2nc(-c3cccc(Cl)c3Cl)oc2c1 (stereo not given) | 1950
COP(=O)(c1ccc2oc(-c3ccc(F)cc3)nc2c1)C(C)C (stereo not given) | 303
COP(=O)(c1ccccc1)c1ccc2oc(-c3ccc(F)cc3)nc2c1 (stereo not given) | 826
CCOP(=O)(CC)c1ccc2oc(-c3ccc(F)cc3)nc2c1 (stereo not given) | 1250
COP(=O)(c1ccc2nc(-c3ccc(F)cc3)oc2c1)C(C)C (stereo not given) | 1510
CCP(=O)(OC)c1cccc2oc(-c3ccc(F)cc3)nc12 (stereo not given) | 1190
CCS(=O)(=O)c1ccc2oc(-c3ccc4ccccc4c3)nc2c1 [BMN 195] | 187
